According to patent US6868215B2, “Dye thin film, production method thereof, optical switch, optical distributor, optical modulator and optical switch array” (Fuji Xerox Co., Ltd., priority 2002, dated 2005):

Test: thermal stability: thermal decomposition temperature by thermogravimetry and differential thermal analysis
Assay type: physicochemical
Protocol: For the absorption characteristic, absorption spectra were measured by using a near infrared photospectrometer. Further, for the thermal stability, the thermal decomposition temperature was measured by thermogravimetry and differential thermal analysis. Further, the solubility in organic solvents such as chloroform or acetone was confirmed.

- decomposition temperature: 202.7 °C
SMILES: CC(C)CN(CC(C)C)c1cc(O)c2c(c1)OC(=O)/C2=C(/[O-])C1=C2C(O)=CC(=[N+](CC(C)C)CC(C)C)C=C2OC1=O [compound (1)]
